Source: article PMC5053523, “In Vitro Antibacterial Activity of Rhodanine Derivatives against Pathogenic Clinical Isolates” (PLoS ONE, 2016)
Converted amounts (≈) assume the structure as drawn. Read-outs that look alike come from different tables or passages of the source.

Columns and labels:
Clostridium difficile = assay: MIC against Clostridium difficile, anaerobic broth dilution; assay type: cell-based; conditions: Clostridioides difficile
In short: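 Clinical C. difficile isolates grown anaerobically 48 h at 37 °C, suspended to 0.5 McFarland and diluted 1:300 in pre-reduced supplemented Brain Heart Infusion broth. Compounds serially diluted; plates incubated anaerobically at 37 °C for 48 h. MIC = lowest concentration with no visible growth.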

Mycobacterium smegmatis = assay: Broth microdilution MIC/MBC, Mycobacterium smegmatis; assay type: cell-based; conditions: Mycolicibacterium smegmatis, ATCC14468, M. Smegmatis ATCC 14468
[1] = system: vancomycin resistant enterococci (VRE) E. faecium; assay: Broth microdilution MIC/MBC, VRE E. faecium; assay type: cell-based; conditions: for MIC: read-out: MIC
B. cereus = assay: Broth microdilution MIC/MBC, B. cereus; assay type: cell-based; conditions: Bacillus cereus; for MBC: read-out: MBC; for MIC: read-out: MIC
Source text: The broth microdilution technique was used, followed by subculturing on agar plates that were rhodanine—free.

Bacillus Strains = assay: Broth microdilution MIC50/MIC90 and MIC range, Bacillus strains panel; assay type: cell-based, Bacillus spp.; conditions: 10 Bacillus strains
Source text: The broth microdilution technique was used, followed by subculturing on agar plates that were rhodanine—free. […] The MICs reported represent the lowest concentration of each compound necessary to inhibit bacterial growth and the MBCs represent the lowest concentration required to reduce the initial bacterial inoculum by ≥ 99.9%.

Candida albicans = assay: MIC against Candida albicans; assay type: cell-based; conditions: table prints none, read-out: MIC
Klebsiella pneumoniae = assay: MIC with/without sub-MIC colistin, Klebsiella pneumoniae; assay type: cell-based
In short: (§1)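 Gram-negative MICs were determined for rhodanines alongside control antibiotics, each combined with sub-inhibitory colistin or PMBN. Further testing used the efflux-deficient E. coli SM1411ΔacrAB, missing the AcrAB multidrug pump.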

Escherichia coli Δ acrAB = assay: MIC against E. coli 1411 and AcrAB efflux pump deficient E. coli SM1411Δ acrAB; assay type: cell-based
In short: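 Rhodanines and control antibiotics are tested for MIC against Gram-negative bacteria while a sub-inhibitory level of colistin or PMBN is present. A strain of E. coli lacking the AcrAB efflux pump (SM1411ΔacrAB) serves as an additional test organism.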

[2] = system: Vancomycin Resistant Staphylococcus aureus (VRSA); assay: Broth microdilution MIC/MBC, VRSA; assay type: cell-based; conditions: for MBC / MIC: VRSA
Escherichia coli O157:H7 [3] = assay: MIC with/without sub-MIC colistin, Escherichia coli O157:H7; assay type: cell-based
In short: as §1

Acinetobacter baumannii = assay: MIC with/without sub-MIC colistin, Acinetobacter baumannii; assay type: cell-based
In short: as §1

B. licheniformis = assay: Broth microdilution MIC/MBC, B. licheniformis; assay type: cell-based; conditions: Bacillus licheniformis; for MBC: read-out: MBC; for MIC: read-out: MIC
Escherichia coli O157:H7 [4] = assay: MIC with/without PMBN, Escherichia coli O157:H7; assay type: cell-based
In short: as §1

[5] = E. faecium HM 968 Strain ERV102
[6] = E. faecium NR31914 Strain E0120
[7] = E. faecium Patient #1–1 NR-31903
[8] = NRS201, B. cereus NRS 201 NR-2488
[9] = NCIB9375, B. licheniformis Gibson 46 (NCIB 9375) NR-2494
[10] = NRS712, B. licheniformis NRS 712 NR-2499

`O=C(O)[C@@H](Cc1ccccc1)N1C(=O)/C(=C/c2cccc(Cc3ccccc3)c2)SC1=S` [Rh 7] was tested, and the MIC (Clostridium difficile; C. difficile HM-88) was 4 µM (≈ 1.84 µg/mL), the MIC (Clostridium difficile; C. difficile HM-745) was 1 µM (≈ 0.46 µg/mL) and the MIC (Clostridium difficile; C. difficile HM-746) was 2 µM (≈ 0.919 µg/mL). For the same compound, the MIC (Clostridium difficile; C. difficile Isolate-1 NR-13427) was 4 µM (≈ 1.84 µg/mL), the MIC (Clostridium difficile; C. difficile Toxigenic Strain P8 NR-32888) was 4 µM (≈ 1.84 µg/mL) and the MBC (Mycobacterium smegmatis; read-out: MBC) was 16 µM (≈ 7.35 µg/mL). It also gave an MIC (Mycobacterium smegmatis; read-out: MIC) of 16 µM (≈ 7.35 µg/mL), an MBC ([1]; E. faecium E417 HM-965) of 64 µM (≈ 29.4 µg/mL) and an MIC ([1]; E. faecium E417 HM-965) of 8 µM (≈ 3.68 µg/mL). The MBC ([1]; E. faecium E1071 NR-28978) was > 64 µM, the MIC ([1]; E. faecium E1071 NR-28978) was 16 µM (≈ 7.35 µg/mL) and the MBC [1, 5] was > 64 µM. It also gave an MIC [1, 5] of 16 µM (≈ 7.35 µg/mL), an MBC [1, 6] of 32 µM (≈ 14.7 µg/mL) and an MIC [1, 6] of 16 µM (≈ 7.35 µg/mL). The MBC [1, 7] was 16 µM (≈ 7.35 µg/mL), the MIC [1, 7] was 8 µM (≈ 3.68 µg/mL) and the MBC (B. cereus; B. cereus BAG1O-2 NR-28582) was 4 µM (≈ 1.84 µg/mL). It also gave an MIC (B. cereus; B. cereus BAG1O-2 NR-28582) of 4 µM (≈ 1.84 µg/mL), an MBC (B. cereus; B. cereus BAG1X1-1 NR-28575) of 4 µM (≈ 1.84 µg/mL) and an MIC (B. cereus; B. cereus BAG1X1-1 NR-28575) of 2 µM (≈ 0.919 µg/mL). For the same compound, the MBC (B. cereus; B. cereus BAG1X2-1 NR-28578) was 4 µM (≈ 1.84 µg/mL), the MIC (B. cereus; B. cereus BAG1X2-1 NR-28578) was 4 µM (≈ 1.84 µg/mL) and the MBC (B. cereus; B. cereus G9241 NR-9564) was 8 µM (≈ 3.68 µg/mL). For the same compound, the MIC (B. cereus; B. cereus G9241 NR-9564) was 8 µM (≈ 3.68 µg/mL), the MBC (B. cereus; B. cereus VD014 NR-22141) was 4 µM (≈ 1.84 µg/mL) and the MIC (B. cereus; B. cereus VD014 NR-22141) was 4 µM (≈ 1.84 µg/mL). For the same compound, the MBC (B. cereus; B. cereus VD115 NR-22148) was 4 µM (≈ 1.84 µg/mL), the MIC (B. cereus; B. cereus VD115 NR-22148) was 4 µM (≈ 1.84 µg/mL) and the MBC (B. cereus; B. cereus VD148 NR-22150) was 4 µM (≈ 1.84 µg/mL). The MIC (B. cereus; B. cereus VD148 NR-22150) was 4 µM (≈ 1.84 µg/mL), the MBC (B. cereus; [8]) was 4 µM (≈ 1.84 µg/mL) and the MIC (B. cereus; [8]) was 4 µM (≈ 1.84 µg/mL). For the same compound, the MIC50 (Bacillus Strains) was 4 µM (≈ 1.84 µg/mL), the MIC90 (Bacillus Strains) was 8 µM (≈ 3.68 µg/mL) and the MIC (Candida albicans; ATCC10231, C. albicans ATCC 10231, unit from abstract) was > 64 µM. For the same compound, the MIC (Candida albicans; C. albicans NR 29434, unit from abstract) was > 64 µM, the MIC (Candida albicans; C. albicans NR 29435, unit from abstract) was > 64 µM and the MIC (Candida albicans; C. albicans NR29437, unit from abstract) was > 64 µM. For the same compound, the MIC (Candida albicans; C. albicans NR29438, unit from abstract) was > 64 µM, the MIC (Candida albicans; C. albicans NR 29446, unit from abstract) was 64 µM (≈ 29.4 µg/mL) and the MIC (Candida albicans; C. albicans NR 29448, unit from abstract) was > 64 µM. The MIC (Candida albicans; C. albicans NR 29449, unit from abstract) was > 64 µM, the MIC (Candida albicans; C. albicans NR 29453, unit from abstract) was > 64 µM and the MIC (Candida albicans; C. albicans NR 294436, unit from abstract) was > 64 µM. The MIC (Klebsiella pneumoniae; Klebsiella pneumoniae ATCC BAA 2146, colistin (+) […]) was >64 µM, the MIC (Klebsiella pneumoniae; Klebsiella pneumoniae, BAA2146) was > 128 µM and the MIC (Escherichia coli Δ acrAB; E.coli 1411) was > 64 µM. For the same compound, the MIC (Escherichia coli Δ acrAB; E.coli 1411 SM (Δ acrAB, AcrAB efflux pump deficient)) was > 64 µM, the MIC50 ([2]; 15 VRSA strains, read-out: MIC 50) was 8 µM (≈ 3.68 µg/mL) and the MIC90 ([2]; 15 VRSA strains, read-out: MIC 90) was 16 µM (≈ 7.35 µg/mL). It also gave an MBC ([2]; VRSA 1, read-out: MBC) of 32 µM (≈ 14.7 µg/mL), an MIC ([2]; VRSA 1, read-out: MIC) of 16 µM (≈ 7.35 µg/mL) and an MBC ([2]; VRSA 2, read-out: MBC) of 8 µM (≈ 3.68 µg/mL). It also gave an MIC ([2]; VRSA 2, read-out: MIC) of 8 µM (≈ 3.68 µg/mL), an MBC ([2]; VRSA 3a, read-out: MBC) of 8 µM (≈ 3.68 µg/mL) and an MIC ([2]; VRSA 3a, read-out: MIC) of 8 µM (≈ 3.68 µg/mL). The MBC ([2]; VRSA 3b, read-out: MBC) was 32 µM (≈ 14.7 µg/mL), the MIC ([2]; VRSA 3b, read-out: MIC) was 8 µM (≈ 3.68 µg/mL) and the MBC ([2]; VRSA 4, read-out: MBC) was 16 µM (≈ 7.35 µg/mL). It also gave an MIC ([2]; VRSA 4, read-out: MIC) of 8 µM (≈ 3.68 µg/mL), an MBC ([2]; VRSA 5, read-out: MBC) of 8 µM (≈ 3.68 µg/mL) and an MIC ([2]; VRSA 5, read-out: MIC) of 8 µM (≈ 3.68 µg/mL). It also gave an MBC ([2]; VRSA 6, read-out: MBC) of 16 µM (≈ 7.35 µg/mL), an MIC ([2]; VRSA 6, read-out: MIC) of 8 µM (≈ 3.68 µg/mL) and an MBC ([2]; VRSA 7, read-out: MBC) of 16 µM (≈ 7.35 µg/mL). For the same compound, the MIC ([2]; VRSA 7, read-out: MIC) was 8 µM (≈ 3.68 µg/mL), the MBC ([2]; VRSA 8, read-out: MBC) was 16 µM (≈ 7.35 µg/mL) and the MIC ([2]; VRSA 8, read-out: MIC) was 8 µM (≈ 3.68 µg/mL). For the same compound, the MBC ([2]; VRSA 9, read-out: MBC) was 16 µM (≈ 7.35 µg/mL), the MIC ([2]; VRSA 9, read-out: MIC) was 16 µM (≈ 7.35 µg/mL) and the MBC ([2]; VRSA 10, read-out: MBC) was 16 µM (≈ 7.35 µg/mL). The MIC ([2]; VRSA 10, read-out: MIC) was 8 µM (≈ 3.68 µg/mL), the MBC ([2]; VRSA 11a, read-out: MBC) was 16 µM (≈ 7.35 µg/mL) and the MIC ([2]; VRSA 11a, read-out: MIC) was 8 µM (≈ 3.68 µg/mL). For the same compound, the MBC ([2]; VRSA 11b, read-out: MBC) was 32 µM (≈ 14.7 µg/mL), the MIC ([2]; VRSA 11b, read-out: MIC) was 8 µM (≈ 3.68 µg/mL) and the MBC ([2]; VRSA 12, read-out: MBC) was 16 µM (≈ 7.35 µg/mL). The MIC ([2]; VRSA 12, read-out: MIC) was 8 µM (≈ 3.68 µg/mL), the MBC ([2]; VRSA 13, read-out: MBC) was 32 µM (≈ 14.7 µg/mL) and the MIC ([2]; VRSA 13, read-out: MIC) was 8 µM (≈ 3.68 µg/mL). For the same compound, the MIC (Escherichia coli O157:H7 [3]; Escherichia coli O157:H7 ATCC 35150, colistin (+) […], read-out: MIC) was >64 µM, the MIC (Escherichia coli O157:H7 [3]; Escherichia coli O157:H7 ATCC 700728, colistin (+) […], read-out: MIC) was >64 µM and the MIC (Escherichia coli O157:H7 [3]; Escherichia coli, ATCC35150) was > 128 µM. For the same compound, the MIC (Escherichia coli O157:H7 [3]; Escherichia coli, ATCC700728) was > 128 µM, the MIC (Acinetobacter baumannii; Acinetobacter baumannii ATCC BAA747, colistin (+) […], read-out: MIC) was >64 µM and the MIC (Acinetobacter baumannii; Acinetobacter baumannii ATCC BAA19606, colistin (+) […], read-out: MIC) was >64 µM. The MIC (Acinetobacter baumannii; Acinetobacter baumannii, ATCCBAA747) was > 128 µM, the MIC (Acinetobacter baumannii; Acinetobacter baumannii, ATCCBAA19606) was > 128 µM and the MBC (B. licheniformis; [9]) was 8 µM (≈ 3.68 µg/mL). For the same compound, the MIC (B. licheniformis; [9]) was 8 µM (≈ 3.68 µg/mL), the MBC (B. licheniformis; [10]) was 8 µM (≈ 3.68 µg/mL) and the MIC (B. licheniformis; [10]) was 8 µM (≈ 3.68 µg/mL). For the same compound, the MIC (Escherichia coli O157:H7 [4]; Escherichia coli O157:H7 ATCC 35150, PMBN (+) 4 μg/mL, read-out: MIC) was 8 µM (≈ 3.68 µg/mL), the MIC (Escherichia coli O157:H7 [4]; Escherichia coli O157:H7 ATCC 700728, PMBN (+) 4 μg/mL, read-out: MIC) was >64 µM and the MIC (Escherichia coli O157:H7 [4]; Escherichia coli, ATCC35150) was > 256 µM. For the same compound, the MIC (Escherichia coli O157:H7 [4]; Escherichia coli, ATCC700728) was > 128 µM.
